Measurements taken from patent US4238496A, “4-Substituted thiazolyl-2-oxamic acids and salts and esters thereof” (Boehringer Ingelheim GmbH, priority 1978, dated 1980).
Where a name gives a salt, the structure may show the parent alone. Read-outs that look alike come from different tables or passages of the source.

Test system: Passive Cutaneous Anaphylaxis
Experiment: Passive Cutaneous Anaphylaxis test (PCA) in rats
Assay type: in vivo
Settings: Rattus norvegicus, read-out: ED50 (dose reducing the size of the blued area by 50%)
Description: The compounds of the present invention, that is, those embraced by formula I and their non-toxic, pharmacologically acceptable salts, have useful pharmacodynamic properties.
The anti-allergic properties were ascertained in rats by the Passive Cutaneous Anaphylaxis test (PCA) essentially as described by Goose and Blair (Immunology 16: 749-760,1969). Rat serum was diluted so that the skin reactions with diameters between 10 and 15 mm in unsensitized rats were produced. The PCA test was performed in duplicate by injecting 0.1 ml of this antiserum dilution on each side of the shaved back of rats. Rats so treated were injected intravenously (i.v.) twenty-four hours later with 5 mg ovalbumin in 0.5 ml of 2% Evans Blue and the test substance to be tested by the i.v. route. In the case of substances tested orally, the i.v. ovalbumin challenge was 0.015 mg in the 0.5 ml of 2% Evans Blue solution administered 20-30 minutes after the oral administration of the test substance. Thirty minutes after challenge the rats were killed by CO2 asphyxiation and the skin reflected the diameters, in millimeters, of the blued areas were measured and the mean diameter determined. The circular area was calculated and the mean area in square millimeters of the control group was considered as 100% and the results of the compound test groups were expressed as a percentage change from these control values. From dose response curves the dose reducing the size of the blued area by 50% (ED50) was estimated.

[1] = iv, test substance given i.v. with 5 mg ovalbumin in 0.5 ml of 2% Evans Blue
[2] = p.o., 0.015 mg ovalbumin i.v. challenge 20-30 minutes after oral administration

Row | SMILES | ED50 [1] | ED50 [2]
1 | COc1ccc(-c2csc(NC(=O)C(=O)O)n2)c(OC)c1 [4-(2',4'4'-dimethoxy-phenyl)-thiazolyl-2-oxamic acid] | 0.39 mg/kg | 
2 | COc1ccc(OC)c(-c2csc(NC(=O)C(=O)O)n2)c1 [4-(2',5'-dimethoxy-phenyl)-thiazolyl-2-oxamic acid ethanolamine salt] | 0.4 mg/kg | 
3 | COc1ccccc1-c1csc(NC(=O)C(=O)O)n1 [4-(2'-Methoxy-phenyl)-thiazolyl-2-oxamic acid] | 1.08 mg/kg | 
4 | CN(C)c1cccc(-c2csc(NC(=O)C(=O)O)n2)c1 [4-(3' -dimethylamino-phenyl)-thiazolyl-2-oxamic acid ethanolamine salt] | 0.34 mg/kg | 1.06 mg/kg
5 | COc1ccc(-c2csc(NC(=O)C(=O)O)n2)cc1OC [4-(3',4'-dimethoxy-phenyl)-thiazolyl-2-oxamic acid] | 0.13 mg/kg | 
6 | COc1cccc(-c2csc(NC(=O)C(=O)O)n2)c1 [4-(3'-methoxy-phenyl)-thiazolyl-2-oxamic acid] | 0.16 mg/kg | 2 mg/kg
7 | CN(C)c1ccc(-c2csc(NC(=O)C(=O)O)n2)cc1 [4-(4'-dimethylamino-phenyl)-thiazolyl-2-oxamic acid] | 0.02 mg/kg | 0.34 mg/kg
8 | O=C(O)C(=O)Nc1nc(-c2ccc3c(c2)OCCO3)cs1 [4-(benzodioxanyl)-thiazolyl-2-oxamic acid ethanolamine salt] | 0.02 mg/kg | 0.7 mg/kg
9 | O=C(O)C(=O)Nc1nc(-c2cccnc2)cs1 [4-[pyridyl-(3')]-thiazolyl-2-oxamic acid ethanolamine salt] | 0.16 mg/kg | 
10 | O=C(O)C(=O)Nc1nc(-c2ccncc2)cs1 [4-[pyridyl-(4')]-thiazolyl-2-oxamic acid ethanolamine salt] | 0.05 mg/kg | 
11 | Cc1sc(NC(=O)C(=O)O)nc1-c1ccccc1 [4-phenyl-5-methyl-thiazolyl-2-oxamic acid] | 0.19 mg/kg | 2.04 mg/kg
12 | CCOC(=O)C(=O)Nc1nc(-c2ccc(O)c(C)c2)cs1 [Ethyl 4-(3'-methyl-4'-hydroxy-phenyl)-thiazolyl-2-oxamate] |  | 2.1 mg/kg
13 | CCOC(=O)C(=O)Nc1nc(-c2ccc(OCC)cc2)cs1 [Ethyl 4-(4'-ethoxy-phenyl)-thiazolyl-2-oxamate] |  | 2.07 mg/kg
14 | CCOC(=O)C(=O)Nc1nc(-c2ccncc2)cs1 [Ethyl 4-[pyridyl-($')]-thiazolyl-2-oxamate] |  | 1.2 mg/kg
15 | COC(=O)C(=O)Nc1nc(-c2ccc(OC)c(OC)c2)cs1 [Methyl 4-(3',4'-dimethoxy-phenyl)-thiazolyl-2-oxamate] |  | 1.2 mg/kg
